In assay [1] the test system is MDA-MB-231 human breast cancer cells. Nature of the assay: Mitochondrial superoxide, EPR with MitoTEMPO-H ±PEG-SOD2. The following applies: MitoQ 100 nM, 48 h. In kind it is cell-based. Here is the method:
Mitochondrial superoxide levels were determined using electron paramagnetic resonance (EPR) with MitoTEMPO-H as a specific mitochondrial superoxide probe ±PEG-SOD2 to specifically assign signals to mitochondrial superoxide. EPR measurements were performed using a Bruker EMX-Plus spectrometer, operating in X-band (9.85 GHz) and equipped with a PremiumX ultra low noise microwave bridge and a SHQ high sensitivity resonator. Typical settings were: microwave power: 20 mW; attenuation: 10 dB; modulation frequency: 100 kHz; modulation amplitude: 0.1 mT; time constant: 20.48 ms; conversion time: 22.58 ms; sweep width: 0.15 mT. Briefly, MDA-MB-231, SkBr3, MCF10A or MDA-MB-436 cells were treated ±MitoQ for 48 h, harvested and resuspended in PBS at 2×10^6 cells/mL. The experimental mixture was prepared with cell suspension, 1 mM DTPA and 150 μM MitoTEMPO-H. It was then aspirated into a gas-permeable polytetrafluoroethylene (PTFE) tubing that was placed in a quartz tube opened at both ends. The tube was directly inserted inside the EPR cavity that was heated at 310° K with air during all experiments. […] Net superoxide production was calculated by subtracting the double integration values of the […] with PEG-SOD2 to the control value at timepoint 15 min.

Assay [2] relates to MDA-MB-231 cells. The experiment in a line: Western blotting (AMPK, EMT proteins). In kind it is cell-based, human. The conditions noted are these: 48 h. The protocol:
(§1) For western blotting (WB), whole-protein extracts from MDA-MB-231, SkBr3 and MDA-MB-436 cells were prepared using RIPA buffer (50 mM Tris pH 7.4, 150 mM NaCl, 1% Triton-X-100, 0.05% sodium deoxycholate, 1 mM EDTA, 0.1% SDS, protease inhibitor cocktail and PhosSTOP Phosphatase Inhibitor Cocktail (Roche®)), centrifuged at 10,000×g for 10 min, and quantified using the Bio-Rad® Protein Assay. Proteins (50 μg for MDA-MB-231 and 100 μg for SkBr3 and MDA-MB-436 cells) were loaded into each lane of a 10-12% polyacrylamide gel in the presence of SDS, and were allowed to separate at 120 V for 90 min. The transfer of proteins onto nitrocellulose membranes was performed using an iBlot 2 Dry Blotting System (Thermo Fisher Scientific®) with the 7 min P0 program. Membranes were then blocked using 5% (w/v) powdered milk for 1 h, and incubated overnight at 4° C. with a primary antibody (Table 4).
(§2) β-actin served as a loading control. Immunodetection was performed at room temperature for 1 h using as secondary antibodies a horseradish peroxidase-conjugated goat anti-rabbit (Jackson®, Cat #111-035-003) and goat anti-mouse (Jackson®, Cat #115-035-003) in PBS-Tween containing 5% (w/v) milk or BSA. Detection was performed with ECL reagent (Amersham®, Cat #RPN2209), and protein bands were visualized and captured using ECL imager 600 (Amersham®). They were analyzed using the Image J software (Java).
Background: A western blot detects proteins with antibodies after separation by electrophoresis.

The test system of assay [3] is SkBr3 cells. Nature of the assay: Western blotting (AMPK, EMT proteins). The conditions noted are these: 48 h. In kind it is cell-based, human. Here is the method:
as §1, §2

In assay [4] the test system is MDA-MB-231 cells. The experiment in a line: RNA sequencing. Type of assay: cell-based, human. The following applies: MitoQ 500 nM, 48 h; |log 2 fold change|>1 and P<0.01. Here is the method: (§3) MDA-MB-231 and SkBr3 cancer cells were treated ±MitoQ for 48 h. Total mRNA was then extracted using the NucleoSpin RNA kit (Macherey-Nagel®), including DNAse treatment in the intermediary steps. mRNAs were quantified using the Qubit BR dsRNA assay kit (Thermo Fisher Scientific®), and mRNA integrity was evaluated on the Agilent 2100 Bioanalyzer using the RNA 6000 nano kit (Agilent®). All samples had RNA integrity number values ≥7.5. Libraries from control and treated samples were prepared starting from 150 ng of total mRNA using the KAPA RNA HyperPrep Kit with RiboErase (HMR) kit (KAPA Biosystems®) following the manufacturer's recommendations (KR1351—v1.16). Libraries were equimolarly pooled and sequenced on a single lane of an Illumina® NovaSeq 6000 platform. All libraries were sequenced at a depth of >50 million paired-end reads (2×100 bp reads) per sample. All sequencing data were analyzed using the Automated Reproducible MOdular workflow for preprocessing and differential analysis of RNAseq data (ARMOR) pipeline. In this pipeline, reads underwent a quality check using FastQC. Quantification and quality control results were summarized in a MultiQC report before being mapped using Salmon to the transcriptome index that was built using all Ensembl cDNA sequences obtained in the Homo_sapiens.GRCh38.cdna.all.fa file. Then, estimated transcript abundances from Salmon were imported into R using the tximeta package, and analyzed for differential gene expression with edgeR. To get a robust signature, only genes with |log 2 Fold Change|>1 and P<0.01 were retained.

The test system of assay [5] is SkBr3 cells. Nature of the assay: RNA sequencing. In kind it is cell-based, human. The following applies: MitoQ 500 nM, 48 h; |log 2 fold change|>1 and P<0.01. The protocol: as §3
The next assay deals with 4T1 cells. The experiment in a line: Invasion, Matrigel-coated transwells. The conditions noted are these: 0.1 μg/mL DXR + 100 nM MitoQ. Type of assay: cell-based, mouse. Here is the method:
Previous to migration and invasion assays, cells were pretreated with the indicated amounts of drugs for 16 h, and left to recover for 6 h in full culture medium. Migration assays were performed in a NeuroProbe® standard 48-well chemotaxis chamber according to manufacturer's instructions. Briefly, the bottom chamber was filled with DMEM containing 0.5% serum as a chemo-attractant. Fifty thousand cells were seeded in the upper chamber in the same medium but without serum ±MitoQ where indicated, and allowed to migrate overnight through an 8-μm pore-size polycarbonate membrane. A similar stimulation protocol was used for invasion assays, with the difference of using Matrigel-coated transwells (Corning®). With MCF7 cells, membranes were previously incubated for 30 min with a solution of Vitronectin 10 μg/ml (Sigma-Aldrich®, #SRP3186). Migrated/invaded cells were fixed and stained with 100 μl of a 0.23% crystal violet solution (Sigma-Aldrich®, #C0775) for 10 min before counting on a SpectraMax™ i3 spectrophotometer equipped with a MiniMax imaging cytometer, using the SoftMax Pro software. Data were normalized to vehicle-treated cells (control).

Regarding `COC1=C(OC)C(=O)C(CCCCCCCCCC[P+](c2ccccc2)(c2ccccc2)c2ccccc2)=C(C)C1=O` [MitoQ], the “mitochondrial superoxide and mitochondrial H2O2 production” value in assay [1] is on record as “lower”. Further, the “5′ AMP-activated protein kinase (AMPK), P-T172-AMPK/total AMPK” value in the assay on MDA-MB-231 cells [2] (MitoQ 100 nM) is recorded as “activation”. Moreover, in the assay with MDA-MB-231 cells [2] (MitoQ 500 nM), the “SNAIL, ZEB1, Twist1 and E-cadherin protein expression” value is given as “decreased”. Besides, in the assay on SkBr3 cells [3] (MitoQ 100 nM), the AMPK activation result is given as “did not significantly activate”. The SNAIL protein expression result in the assay with SkBr3 cells [3] (MitoQ 500 nM) is recorded as “decreased”. For the same compound, in the assay with MDA-MB-231 cells [4], the “number of downregulated transcripts” value is on record as 1,943 and the “number of upregulated transcripts” value is reported as 2,153. For the same compound, in the assay with SkBr3 cells [5], the “number of downregulated transcripts” value was 5 and the “number of upregulated transcripts” value is 20. Further, in the assay with 4T1 cells, the DXR-stimulated cell invasion entry is “inhibited”.

The record behind these values is patent publication US20250270648A1, “MOLECULAR SIGNATURE FOR ASSESSING THE RESPONSIVENESS OF CANCER TO MITOCHONDRIA-TARGETED ANTIOXIDANTS” (UNIVERSITÉ CATHOLIQUE DE LOUVAIN, priority 2021, published 2025).
